Experimental data as given in the supplement of paper PMC10307832.

Columns and labels:
Assay in all cases: relative viability (nuclei count vs DMSO), 5 days (fraction); higher = more cells survive
[1] = compound: CN1CCC(CNc2ccc3ncc(-c4cccc(OC(F)(F)F)c4)n3n2)CC1 [SGI-1776] + CC(=O)Nc1cccc(-n2c(=O)n(C3CC3)c(=O)c3c(Nc4ccc(I)cc4F)n(C)c(=O)c(C)c32)c1 [Trametinib] (partner 0.02 µM)
In short: (§1)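 Lung cancer cell lines in 1536-well plates were dosed by pin tool the day after seeding, either with one drug alone or with a fixed anchor-drug dose plus five library-drug doses (not always all listed) in √10 steps. After 5 days, cells were fixed and their nuclei stained in one step (final 0.05% Triton X-100, 1% formaldehyde, 1 ug/ml Hoechst), then counted on 4× images. Relative viability is the nuclei count in treated wells divided by that in vehicle wells. Values are medians of duplicate plates.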

[2] = compound: C1COCCN1C2=NC(=NC3=C2OC4=C3C=CC=N4)C5=CC(=CC=C5)NC(=O)C6=CN=C(C=C6)N + N=C(N)NC(=N)NCCc1ccccc1 [Phenformin] (partner 250 µM)
In short: as §1

[3] = compound: C1COCCN1C2=NC(=NC3=C2OC4=C3C=CC=N4)C5=CC(=CC=C5)NC(=O)C6=CN=C(C=C6)N + CC1(C)CCC(c2ccc(Cl)cc2)=C(CN2CCN(c3ccc(C(=O)NS(=O)(=O)c4ccc(N[C@H](CCN5CCOCC5)CSc5ccccc5)c(S(=O)(=O)C(F)(F)F)c4)cc3)CC2)C1 [Navitoclax] (partner 0.5 µM)
In short: as §1

[4] = compound: CN1CCC(CNc2ccc3ncc(-c4cccc(OC(F)(F)F)c4)n3n2)CC1 [SGI-1776] + CCNC(=O)c1noc(-c2cc(C(C)C)c(O)cc2O)c1-c1ccc(CN2CCOCC2)cc1 [Luminespib] (partner 0.01 µM)
In short: as §1

Cell Line | relative viability ([1]; first compound 0.08 µM) | relative viability ([1]; first compound 0.8 µM) | relative viability ([1]; first compound 2.53 µM) | relative viability ([1]; first compound 8 µM) | relative viability ([2]; first compound 0.02 µM) | relative viability ([2]; first compound 0.06325 µM) | relative viability ([2]; first compound 0.2 µM) | relative viability ([2]; first compound 0.6325 µM) | relative viability ([2]; first compound 2 µM) | relative viability ([3]; first compound 0.02 µM) | relative viability ([3]; first compound 0.06325 µM) | relative viability ([3]; first compound 0.2 µM) | relative viability ([3]; first compound 0.6325 µM) | relative viability ([3]; first compound 2 µM) | relative viability ([4]; first compound 0.08 µM) | relative viability ([4]; first compound 0.8 µM) | relative viability ([4]; first compound 2.53 µM) | relative viability ([4]; first compound 8 µM)
NCI-H520 | 0.773 | 0.816 | 0.686 | 0.544 | 0.597 | 0.631 | 0.588 | 0.479 | 0.403 | 1.12 | 1.17 | 1.06 | 1.07 | 0.713 | 0.209 | 0.218 | 0.244 | 0.281
LOU-NH91 | 0.808 | 0.766 | 0.806 | 0.695 | 0.709 | 0.723 | 0.724 | 0.721 | 0.652 | 0.658 | 0.728 | 0.765 | 0.74 | 0.586 | 0.366 | 0.345 | 0.367 | 0.305
COR-L23 | 0.694 | 0.619 | 0.613 | 0.408 | 0.426 | 0.445 | 0.418 | 0.433 | 0.218 | 1.14 | 1.1 | 1.05 | 1.13 | 0.666 | 0.702 | 0.68 | 0.743 | 0.511
NCI-H1437 | 0.565 | 0.524 | 0.361 | 0.301 | 0.343 | 0.351 | 0.286 | 0.225 | 0.114 | 1.15 | 1.16 | 1.04 | 1.08 | 0.563 | 1.12 | 1.19 | 1.22 | 1.12
EPLC-272H | 0.288 | 0.282 | 0.307 | 0.282 | 0.306 | 0.305 | 0.26 | 0.241 | 0.282 | 1.23 | 1.06 | 1.13 | 1.08 | 0.893 | 0.402 | 0.536 | 0.501 | 0.2
ChaGo-K-1 | 0.878 | 0.865 | 0.874 | 0.909 | 0.464 | 0.583 | 0.533 | 0.456 | 0.459 | 0.96 | 0.863 | 0.619 | 1.01 | 0.839 | 0.586 | 0.51 | 0.706 | 0.556
NCI-H1666 | 0.95 | 0.846 | 0.935 | 0.842 | 0.577 | 0.608 | 0.473 | 0.567 | 0.442 | 0.856 | 0.96 | 0.722 | 0.687 | 0.573 | 1.03 | 0.995 | 0.972 | 0.877
HCC-44 | 1.04 | 1.05 | 0.988 | 1.09 | 0.182 | 0.191 | 0.137 | 0.157 | 0.171 | 1.08 | 1.15 | 1.08 | 1 | 0.571 | 1.06 | 0.953 | 1.01 | 0.693
RERF-LC-KJ | 0.917 | 0.843 | 0.722 | 0.707 | 0.416 | 0.484 | 0.395 | 0.426 | 0.291 | 0.966 | 0.995 | 0.759 | 1 | 0.712 | 1.23 | 1.17 | 0.904 | 0.688
LU99A | 0.62 | 0.594 | 0.542 | 0.515 | 0.845 | 0.876 | 0.78 | 0.371 | 0.255 | 0.779 | 0.842 | 0.786 | 0.587 | 0.277 | 0.245 | 0.247 | 0.253 | 0.254
PC-3 [JPC-3] | 0.757 | 0.73 | 0.656 | 0.462 | 0.485 | 0.491 | 0.453 | 0.469 | 0.443 | 0.823 | 0.847 | 0.848 | 0.741 | 0.615 | 0.739 | 0.573 | 0.741 | 0.628
NCI-H2126 | 0.585 | 0.572 | 0.293 | 0.472 | 0.535 | 0.553 | 0.524 | 0.461 | 0.441 | 0.872 | 0.828 | 0.9 | 0.839 | 0.763 | 0.933 | 0.972 | 0.947 | 0.774
LXF-289 | 0.68 | 0.64 | 0.668 | 0.606 | 0.523 | 0.536 | 0.541 | 0.49 | 0.383 | 0.989 | 1.02 | 0.973 | 0.924 | 0.711 | 0.688 | 0.654 | 0.665 | 0.598
BEN | 1.03 | 1.24 | 0.991 | 0.791 | 0.278 | 0.263 | 0.269 | 0.253 | 0.318 | 0.0527 | 0.058 | 0.0742 | 0.0452 | 0.0457 | 0.434 | 0.39 | 1.1 | 0.475
SW 1573 | 0.525 | 0.444 | 0.463 | 0.305 | 0.368 | 0.454 | 0.314 | 0.319 | 0.205 | 1.02 | 1.01 | 0.856 | 0.912 | 0.567 | 0.281 | 0.653 | 0.314 | 0.185
NCI-H1993 | 0.576 | 0.496 | 0.765 | 0.538 | 0.483 | 0.498 | 0.501 | 0.513 | 0.522 | 0.819 | 1.06 | 0.822 | 0.874 | 0.763 | 0.882 | 0.964 | 0.676 | 0.652
SK-LU-1 | 0.557 | 0.541 | 0.533 | 0.408 | 0.56 | 0.488 | 0.513 | 0.567 | 0.349 | 0.982 | 0.724 | 0.863 | 0.765 | 0.447 | 0.217 | 0.192 | 0.19 | 0.167
NCI-H460 | 0.127 | 0.162 | 0.208 | 0.154 | 0.554 | 0.57 | 0.512 | 0.144 | 0.0234 | 1.38 | 1.47 | 1.19 | 0.957 | 0.0442 | 0.0293 | 0.0297 | 0.0268 | 0.019
